Laboratory results published in paper PMC3705364, “Biochemical and Electrophysiological Characterization of Two Sea Anemone Type 1 Potassium Toxins from a Geographically Distant Population of Bunodosoma caissarum” (Marine Drugs, 2013).
Where a SMILES comes first, the peptide text is derived from it. Bridges are numbered along the chain shown (N, C = ends).

What was measured:
[1] = target: T1, hKV1.3 (Homo sapiens, UniProt P22001); experiment: Two-electrode voltage-clamp, X. laevis oocytes expressing hKV1.3; format: cell-based; design: expressed in transfected cells; host or cells: Xenopus laevis oocytes injected with cRNA
T1 sequence (P22001 whole entry): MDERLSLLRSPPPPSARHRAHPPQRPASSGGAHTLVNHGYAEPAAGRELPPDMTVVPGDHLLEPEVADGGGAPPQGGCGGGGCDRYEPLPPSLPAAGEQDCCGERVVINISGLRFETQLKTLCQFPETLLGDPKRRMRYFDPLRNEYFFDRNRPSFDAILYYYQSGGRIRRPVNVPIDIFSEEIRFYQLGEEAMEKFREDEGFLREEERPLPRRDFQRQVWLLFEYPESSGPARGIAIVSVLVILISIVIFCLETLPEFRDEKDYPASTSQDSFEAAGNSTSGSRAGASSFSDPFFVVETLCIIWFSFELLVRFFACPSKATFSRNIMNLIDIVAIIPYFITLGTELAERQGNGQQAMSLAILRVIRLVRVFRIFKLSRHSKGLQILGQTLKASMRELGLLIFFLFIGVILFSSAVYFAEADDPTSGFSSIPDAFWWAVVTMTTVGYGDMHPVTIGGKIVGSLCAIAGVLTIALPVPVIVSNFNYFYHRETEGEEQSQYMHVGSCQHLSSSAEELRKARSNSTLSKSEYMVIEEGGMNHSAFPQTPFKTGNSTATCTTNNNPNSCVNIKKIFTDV
Description: (§1) Stage V–VI of X. laevis oocytes were harvested by partial ovariectomy under anesthesia (3-aminobenzoic acid ethyl ester methanesulfonate salt, 0.5 g/L from Sigma-Aldrich Co., Saint Louis, MO, USA). The oocytes were defolliculated for 2 h by treatment with 2 mg/mL collagenase (Sigma-Aldrich Co., Saint Louis, MO, USA) in Ca^2+ free ND96 solution (in mM: 96 NaCl; 2 KCl; 1 MgCl2; 5 HEPES adjusted pH 7.4). For the expression of KV channels (KV1.1–KV1.6, KV2.1, KV3.1, KV4.2, KV4.3, hERG and the insect channel Shaker IR), the linearized plasmids were transcribed using the T7 or SP6 mMessage-mMachine transcription kit (Ambion, Austin, TX, USA). Oocytes were injected with 50 nL of cRNA at a concentration of 1 ng/nL using a microinjector (Drummond Scientific, Broomall, PA, USA). The oocytes were maintained in a ND96 solution (in mM: 96 NaCl, 2 KCl, 1.8 CaCl2, 2 MgCl2 and 5 HEPES; adjusted pH 7.4), supplemented with 50 µg/mL gentamicin sulfate.
(§2) Two-electrode voltage-clamp recordings were performed at room temperature (18–22 °C) using a Geneclamp 500 amplifier (Molecular Devices, Sunnyvale, CA, USA) controlled by a pClamp data acquisition system (Axon Instruments, Union City, CA, USA). Whole-cell currents from oocytes were recorded from 1 to 3 days after injection. Bath solution was the same ND96 solution described above. Voltage and current electrodes were filled with 3 M KCl. Resistances of both electrodes were kept between 0.8 and 1.0 ΩM. The elicited currents were filtered at 500 Hz using a four-pole lowpass Bessel filter. Leak subtraction was performed using a −P/4 protocol. KV1.1–KV1.6 and Shaker IR currents were evoked by 500 ms depolarizations to 0 mV, followed by a 500 ms pulse to −50 mV, from a holding potential of −90 mV. Current traces of hERG channels were elicited by applying a +40 mV prepulse for 2 s, followed by a step to −120 mV for 2 s. KV3.1, KV 4.2 and KV4.3 currents were elicited by 500 ms pulses to +20 mV from a holding potential of −90 mV. To assess the concentration-response relationships, data were fitted with the Hill equation: y = 100/[1 + (EC50/[toxin])h] (1) where y is the amplitude of the toxin-induced effect, EC50 is the toxin concentration at half maximal efficacy, [toxin] is the toxin concentration and h is the Hill coefficient. In order to investigate the current-voltage relationship, current traces were evoked by 10 mV depolarization steps from a holding potential of −90 mV. […]
(§3) Comparison of two sample means was made using a paired Student’s t test (p < 0.05). […] All data were analyzed using Clampfit 10.3 (Molecular Devices, Sunnyvale, CA, USA) and Origin 7.5 software (Origin Lab., Northampton, MA, USA).

[2] = target: T2, rKV1.1 (Rattus norvegicus, UniProt P10499); experiment: Two-electrode voltage-clamp, X. laevis oocytes expressing rKV1.1; format: cell-based; details: mean ± standard error
T2 construct: expressed in transfected cells; host or cells: Xenopus laevis oocytes injected with cRNA
T2 sequence (P10499 whole entry): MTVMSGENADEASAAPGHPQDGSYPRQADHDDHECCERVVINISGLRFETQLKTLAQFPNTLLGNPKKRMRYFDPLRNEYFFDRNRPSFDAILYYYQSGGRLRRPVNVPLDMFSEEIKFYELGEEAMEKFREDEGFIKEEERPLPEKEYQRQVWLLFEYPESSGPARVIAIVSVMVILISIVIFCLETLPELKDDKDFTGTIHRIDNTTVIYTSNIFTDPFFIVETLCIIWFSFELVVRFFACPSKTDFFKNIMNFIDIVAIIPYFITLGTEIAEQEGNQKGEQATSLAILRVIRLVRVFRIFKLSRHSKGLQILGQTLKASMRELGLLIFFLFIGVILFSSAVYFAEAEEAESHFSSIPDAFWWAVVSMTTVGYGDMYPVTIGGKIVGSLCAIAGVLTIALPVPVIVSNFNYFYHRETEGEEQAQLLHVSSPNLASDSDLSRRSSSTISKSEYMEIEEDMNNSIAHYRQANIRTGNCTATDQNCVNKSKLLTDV
Description: as §1, §2, §3

[3] = target: T3, rKV1.2 (Rattus norvegicus, UniProt P63142); experiment: Two-electrode voltage-clamp, X. laevis oocytes expressing rKV1.2; format: cell-based
T3 construct: expressed in transfected cells; host or cells: Xenopus laevis oocytes injected with cRNA
T3 sequence (P63142 whole entry): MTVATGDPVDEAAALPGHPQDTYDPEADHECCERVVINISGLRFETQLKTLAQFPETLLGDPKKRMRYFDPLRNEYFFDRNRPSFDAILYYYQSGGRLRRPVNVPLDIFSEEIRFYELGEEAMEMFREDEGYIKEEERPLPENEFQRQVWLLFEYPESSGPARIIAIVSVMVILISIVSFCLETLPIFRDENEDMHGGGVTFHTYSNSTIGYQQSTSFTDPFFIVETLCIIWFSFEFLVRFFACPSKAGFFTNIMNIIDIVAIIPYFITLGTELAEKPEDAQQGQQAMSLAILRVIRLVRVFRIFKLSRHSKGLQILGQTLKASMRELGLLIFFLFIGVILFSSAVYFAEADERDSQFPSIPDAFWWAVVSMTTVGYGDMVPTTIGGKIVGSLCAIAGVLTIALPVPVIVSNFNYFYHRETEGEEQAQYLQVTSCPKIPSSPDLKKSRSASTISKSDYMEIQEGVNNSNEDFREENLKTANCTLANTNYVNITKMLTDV
Description: as §1, §2, §3

[4] = system: KV1.1–KV1.6, KV2.1, KV3.1, KV4.2, KV4.3, hERG and Shaker IR; experiment: Electrophysiological screening on 12 cloned KV channel isoforms in X. laevis oocytes; format: cell-based, rat, human, insect
Description: The pharmacological profile of BcsTx-1 and -2 were determined on a wide range of twelve KV channels (rKV1.1, rKV1.2, hKV1.3, rKV1.4, rKV1.5, rKV1.6, rKV2.1, rKV3.1, rKV4.2, rKV4.3, hERG and the insect channel Shaker IR; r: rat and h: human). Channels were expressed in X. laevis oocytes, and their currents were recorded by using two-electrode voltage-clamp technique. BcsTx1 (0.5 µM) inhibited rKv1.1, rKv1.2, rKv1.3, rKv1.6 and Shaker IR channels with 44% ± 2%, 100%, 100%, 88% ± 3% and 64% ± 4%, respectively (Figure 6). […] Type 1 toxins, such as BgK and ShK, have been extensively characterized. […] Some of the other type 1 toxins were indirectly assayed by competitive inhibition of the binding of ^125I-dendrotoxins, allowing the conclusion that they will show activity on KV1.1, KV1.2 and/or KV1.6, since dendrotoxins only block the current of these KV channels. […] Thus, it is worth mentioning that our work represents the first electrophysiological characterization of type 1 sea anemone toxin activity on cloned Shaker IR insect channel.
as §1
Two-electrode voltage-clamp recordings were performed at room temperature (18–22 °C) using a Geneclamp 500 amplifier (Molecular Devices, Sunnyvale, CA, USA) controlled by a pClamp data acquisition system (Axon Instruments, Union City, CA, USA). Whole-cell currents from oocytes were recorded from 1 to 3 days after injection. Bath solution was the same ND96 solution described above. Voltage and current electrodes were filled with 3 M KCl. Resistances of both electrodes were kept between 0.8 and 1.0 ΩM. The elicited currents were filtered at 500 Hz using a four-pole lowpass Bessel filter. Leak subtraction was performed using a −P/4 protocol. KV1.1–KV1.6 and Shaker IR currents were evoked by 500 ms depolarizations to 0 mV, followed by a 500 ms pulse to −50 mV, from a holding potential of −90 mV. Current traces of hERG channels were elicited by applying a +40 mV prepulse for 2 s, followed by a step to −120 mV for 2 s. KV3.1, KV 4.2 and KV4.3 currents were elicited by 500 ms pulses to +20 mV from a holding potential of −90 mV. To assess the concentration-response relationships, data were fitted with the Hill equation: y = 100/[1 + (EC50/[toxin])h] (1) where y is the amplitude of the toxin-induced effect, EC50 is the toxin concentration at half maximal efficacy, [toxin] is the toxin concentration and h is the Hill coefficient. In order to investigate the current-voltage relationship, current traces were evoked by 10 mV depolarization steps from a holding potential of −90 mV. The activation curves were fitted with a Boltzmann relationship of the form: 1/(1 + e^[−(V − V^1/2)/^S^]) (2) where V1/2 is the voltage for half-maximal activation and s is the slope factor. The activation kinetics were obtained by mono-exponential fits to the raw current traces.

[5] = target: T4, Shaker IR (Drosophila melanogaster, UniProt P08510, DEL6-46); experiment: Two-electrode voltage-clamp, X. laevis oocytes expressing Shaker IR; format: cell-based, insect; details: mean ± standard error
T4 construct: expressed in transfected cells; host or cells: Xenopus laevis oocytes injected with cRNA
T4 sequence (P08510 with tags, fused parts or gaps DEL6-46): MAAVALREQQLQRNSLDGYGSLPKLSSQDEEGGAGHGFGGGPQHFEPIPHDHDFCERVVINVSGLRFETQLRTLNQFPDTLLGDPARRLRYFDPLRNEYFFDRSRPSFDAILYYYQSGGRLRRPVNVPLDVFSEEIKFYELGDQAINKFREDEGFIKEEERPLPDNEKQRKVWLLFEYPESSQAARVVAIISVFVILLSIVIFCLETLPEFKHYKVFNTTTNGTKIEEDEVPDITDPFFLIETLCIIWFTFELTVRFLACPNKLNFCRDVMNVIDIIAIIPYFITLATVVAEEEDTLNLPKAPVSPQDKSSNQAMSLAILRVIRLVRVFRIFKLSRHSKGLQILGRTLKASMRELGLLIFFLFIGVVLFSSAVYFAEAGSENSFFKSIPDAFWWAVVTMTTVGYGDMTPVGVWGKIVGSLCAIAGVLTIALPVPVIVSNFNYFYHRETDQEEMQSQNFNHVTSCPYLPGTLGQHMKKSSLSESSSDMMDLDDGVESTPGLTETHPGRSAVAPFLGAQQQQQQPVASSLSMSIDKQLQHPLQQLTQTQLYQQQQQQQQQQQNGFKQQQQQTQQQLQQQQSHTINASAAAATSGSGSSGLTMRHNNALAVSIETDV
Description: as §1, §2, §3

[6] = target: T5, rKV1.6 (Rattus norvegicus, UniProt P17659); experiment: Two-electrode voltage-clamp, X. laevis oocytes expressing rKV1.6; format: cell-based; details: mean ± standard error
T5 construct: expressed in transfected cells; host or cells: Xenopus laevis oocytes injected with cRNA
T5 sequence (P17659 whole entry): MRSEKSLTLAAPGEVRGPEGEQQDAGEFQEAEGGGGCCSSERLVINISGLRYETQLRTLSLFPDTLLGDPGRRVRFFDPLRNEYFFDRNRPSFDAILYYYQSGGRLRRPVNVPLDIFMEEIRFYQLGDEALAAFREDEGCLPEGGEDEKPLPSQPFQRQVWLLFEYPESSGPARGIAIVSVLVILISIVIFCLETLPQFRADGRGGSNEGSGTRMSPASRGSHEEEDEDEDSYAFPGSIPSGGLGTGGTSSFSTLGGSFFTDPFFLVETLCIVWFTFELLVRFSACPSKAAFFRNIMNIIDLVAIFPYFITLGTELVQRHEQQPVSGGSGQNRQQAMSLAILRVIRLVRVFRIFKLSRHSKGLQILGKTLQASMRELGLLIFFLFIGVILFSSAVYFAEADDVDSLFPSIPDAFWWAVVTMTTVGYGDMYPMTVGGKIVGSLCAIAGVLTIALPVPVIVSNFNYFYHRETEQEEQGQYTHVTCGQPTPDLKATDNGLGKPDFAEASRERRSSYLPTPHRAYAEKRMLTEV
Description: as §1, §2, §3

[7] = system: KV1.2; details: expressed in Xenopus oocytes; cited from earlier work
Description: The pharmacological profile of BcsTx-1 and -2 were determined on a wide range of twelve KV channels (rKV1.1, rKV1.2, hKV1.3, rKV1.4, rKV1.5, rKV1.6, rKV2.1, rKV3.1, rKV4.2, rKV4.3, hERG and the insect channel Shaker IR; r: rat and h: human). Channels were expressed in X. laevis oocytes, and their currents were recorded by using two-electrode voltage-clamp technique. BcsTx1 (0.5 µM) inh ... || In order to characterize the potency and selectivity profile, concentration-response curves were constructed for BcsTx1. […] A concentration-response curve was also constructed to determine the concentration at which BcsTx2 blocked half of the channels.

[8] = target: Shaker IR (insect) (UniProt P08510)
Sequence of Shaker IR (insect) (P08510 whole entry): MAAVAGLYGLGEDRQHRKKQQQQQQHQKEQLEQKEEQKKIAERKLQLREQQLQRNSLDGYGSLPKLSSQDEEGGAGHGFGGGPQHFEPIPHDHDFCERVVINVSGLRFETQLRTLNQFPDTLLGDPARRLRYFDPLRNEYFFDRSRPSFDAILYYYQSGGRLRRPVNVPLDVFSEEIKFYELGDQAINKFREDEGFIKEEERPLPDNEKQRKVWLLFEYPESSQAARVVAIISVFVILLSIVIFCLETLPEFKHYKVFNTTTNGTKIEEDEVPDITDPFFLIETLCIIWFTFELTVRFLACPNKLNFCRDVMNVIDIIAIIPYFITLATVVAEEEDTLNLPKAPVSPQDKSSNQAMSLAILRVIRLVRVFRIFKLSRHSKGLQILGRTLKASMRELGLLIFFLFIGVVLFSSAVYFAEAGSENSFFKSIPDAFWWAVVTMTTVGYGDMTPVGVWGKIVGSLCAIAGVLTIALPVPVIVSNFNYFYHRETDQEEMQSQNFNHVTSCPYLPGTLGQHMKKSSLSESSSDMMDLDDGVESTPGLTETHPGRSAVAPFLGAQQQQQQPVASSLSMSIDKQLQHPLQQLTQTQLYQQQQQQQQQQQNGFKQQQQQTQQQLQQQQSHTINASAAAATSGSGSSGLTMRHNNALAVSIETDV

[9] = target: rKV1.6 (rat) (UniProt P17659)
Sequence of rKV1.6 (rat) (P17659 whole entry): as the sequence (P17659 whole entry) above

[10] = target: T1, hKV1.3
[11] = target: rKV1.1 (rat) (UniProt P10499)
Sequence of rKV1.1 (rat) (P10499 whole entry): as the sequence (P10499 whole entry) above

[12] = target: rKV1.2 (rat) (UniProt P63142)
Sequence of rKV1.2 (rat) (P63142 whole entry): as the sequence (P63142 whole entry) above

[13] = target: Shaker IR (insect) (UniProt P08510); remark: listed apart in the source
[14] = target: rKV1.6 (rat) (UniProt P17659); remark: listed apart in the source
[15] = target: T1, hKV1.3; remark: listed apart in the source
[16] = target: rKV1.1 (rat) (UniProt P10499); remark: listed apart in the source
[17] = target: rKV1.2 (rat) (UniProt P63142); remark: listed apart in the source
[18] = TEVC, 18–22 °C, ND96 pH 7.4, 500 ms depolarizations to 0 mV from −90 mV, Hill fit, mean ± standard error, n ≥ 3
[19] = TEVC, 18–22 °C, ND96 pH 7.4, 500 ms depolarizations to 0 mV from −90 mV, Hill fit, n ≥ 3

## CC[C@H](C)[C@@H]1NC(=O)[C@@H](NC(=O)[C@H](C)N)CSSC[C@@H](C(=O)N[C@@H](Cc2c[nH]cn2)C(=O)O)NC(=O)[C@H](CC(C)C)NC(=O)CNC(=O)[C@@H]2CSSC[C@@H]3NC(=O)[C@H](CO)NC(=O)CNC(=O)CNC(=O)[C@H](CCCCN)NC(=O)[C@H](CCCCN)NC(=O)[C@H](C(C)C)NC(=O)[C@H](Cc4c[nH]cn4)NC(=O)[C@H](CCCCN)NC(=O)[C@H](CSSC[C@H](NC(=O)[C@H](CC(N)=O)NC(=O)[C@H]([C@@H](C)CC)NC(=O)[C@H](CCCNC(=N)N)NC(=O)[C@H](Cc4ccc(O)cc4)NC(=O)[C@H](CCCCN)NC(=O)[C@H](CCC(N)=O)NC(=O)[C@H](CO)NC(=O)[C@H](CC(N)=O)NC(=O)[C@H](CCCCN)NC3=O)C(=O)N[C@@H](C)C(=O)N[C@@H](CCCCN)C(=O)N[C@@H]([C@@H](C)O)C(=O)N2)NC(=O)[C@H]([C@@H](C)O)NC(=O)CNC(=O)[C@H]([C@@H](C)O)NC(=O)[C@@H]2CCCN2C(=O)[C@H](Cc2ccccc2)NC(=O)[C@H](CCCNC(=N)N)NC(=O)[C@H](CC(=O)O)NC1=O [BcsTx1] (H-ACIDRFPTGTCKHVKKGGSCKNSQKYRINCAKTCGLCH-OH; disulfide 2-37, 11-30, 20-34)
[1]; 0.5 µM, n ≥ 3, read-out: inhibition of KV1.3 current
  inhibition at 0.5 µM: 100%
[1]; [18]
  IC50: 74.1 ± 20.2 nM
[2]; 0.5 µM, n ≥ 3, read-out: inhibition of rKV1.1 current
  inhibition at 0.5 µM: 44%
[2]; [19]
  IC50: 405 ± 20.6 nM
[3]; 0.5 µM, n ≥ 3, read-out: inhibition of rKV1.2 current
  inhibition at 0.5 µM: 100%
[3]; [18]
  IC50: 0.03 ± 0.006 nM
[4]; 0.5 µM, 12 KV isoforms
  selectivity among KV channels (in words): selectively blocks KV1.x channels
[4]; summary of IC50 values, compared with BgK and type 2 toxins
  potency class on KV channels (in words): within the nanomolar range
[4]; summary of the electrophysiological characterization
  affinity/potency order among KV channels (in words): high affinity for rKv1.2 over rKv1.6, hKv1.3, Shaker IR and rKv1.1
[5]; 0.5 µM, n ≥ 3, read-out: inhibition of Shaker IR current
  inhibition at 0.5 µM: 64%
[5]; [19]
  IC50: 248 ± 96 nM
[6]; 0.5 µM, n ≥ 3, read-out: inhibition of rKV1.6 current
  inhibition at 0.5 µM: 88%
[6]; [19]
  IC50: 1.31 ± 0.2 nM

## AsKs: type 1 toxin from Anemonia viridis / Anemonia sulcata (Swiss-Prot Q9TWG1) (ACKDNFAAATCKHVKENKNCGSQKYATNCAKTCGKC; UniProt Q9TWG1 1-36, looked up)
[7]
  block of KV1.2 current (in words): blocker of KV1.2 current

## BcsTx1 (from UniProt C0HJC2 1-38) (peptide)
[8]
  IC50 of block of the channel's K+ current, two-electrode voltage clamp on X. laevis oocytes, concentration-response curve: 248 nM
[9]
  IC50 of block of the channel's K+ current, two-electrode voltage clamp on X. laevis oocytes, concentration-response curve: 1.31 nM
[10]
  IC50 of block of the channel's K+ current, two-electrode voltage clamp on X. laevis oocytes, concentration-response curve: 74.1 nM
[11]
  IC50 of block of the channel's K+ current, two-electrode voltage clamp on X. laevis oocytes, concentration-response curve: 405 nM
[12]
  IC50 of block of the channel's K+ current, two-electrode voltage clamp on X. laevis oocytes, concentration-response curve: 0.03 nM
[13]
  percent inhibition of the channel's current by 0.5 µM BcsTx1, two-electrode voltage clamp on X. laevis oocytes: 64%
[14]
  percent inhibition of the channel's current by 0.5 µM BcsTx1, two-electrode voltage clamp on X. laevis oocytes: 88%
[15]
  percent inhibition of the channel's current by 0.5 µM BcsTx1, two-electrode voltage clamp on X. laevis oocytes: 100%
[16]
  percent inhibition of the channel's current by 0.5 µM BcsTx1, two-electrode voltage clamp on X. laevis oocytes: 44%
[17]
  percent inhibition of the channel's current by 0.5 µM BcsTx1, two-electrode voltage clamp on X. laevis oocytes: 100%
